# Values of other authors, collected in patent US20240216546A1, “MODEL OPTIMIZED DRUG AND DRUG COMBINATIONS FOR TREATING CANCERS” (My Personal Therapeutics, priority 2021, published 2024).
# Tested on: non-small cell lung cancer
# Conditions: erlotinib in combination with first line chemotherapy (carboplatin and paclitaxel)
# [1] = patients with the KRAS mutation
smiles,measurement,setting,value
C#Cc1cccc(Nc2ncnc3cc(OCCOC)c(OCCOC)cc23)c1 [erlotinib],time-to-progression,group with wild-type KRAS,12 months
same,overall survival,[1],four
same,time to progression,[1],three
